Entries after “also recorded” stand apart in the source; their conditions may differ.
Assays:
[1] = tested on: KE37-1/111β (HIV-infected T-lymphoma cells); assay: MTT test, growth of HIV infected T-lymphoma cells; assay type: cell-based
Experimental: The KE37-1 (uninfected) and KE37-1/111β (infected) cell lines discussed below are commercially available from the Dr. Robert Gallows Laboratory of the NIH in the United States of America and grown in a medium of RPMI 1640 (GIBCO) and further supplemented with 10% fetal calf serum which contained approximately 100 units of penicillin, 100 μg streptomycin, and approximately 0.25 μg fungizone (Amphotericin B) per milliliter. The human mesenchymal cell lines LC5 and LC5-HIV, discussed below, are deposited with the Collection De L'Institut Pasteur of Paris, France on Mar. 9, 1989 and given the accession numbers I-842 and I-843, respectively. The LC5 and LC5-HIV cell lines were grown in a medium of RPMI 1640 and supplemented with 10% fetal calf serum.
Referring more particularly to FIGS. 1-4, melittin (Seq. ID NO:1) and its specified analogues were tested for their effect on HIV-infected T-lymphoma cells. In this regard the following cell lines were employed in the testing: KE37-1 (uninfected) and KE37-1/111S (infected with HTLV-111β). These infected cells were incubated for a period of seven days under test conditions at a temperature of 37° C. and in the presence of 5% CO2. A culture medium of RPMI 1640 (GIBCO) was employed and was further supplemented with 10% fetal calf serum which contained approximately 100 units of penicillin, 100μ of streptomycin, and approximately 0.25μ fungizone (Amphotericin B) per milliliter. This equals 1 milliliter of antibiotic-antimycotic solution (GIBCO Catalogue No. 043-05240 per 100 ml. of medium.) After a one week incubation period in the presence of various concentrations of the above-identified substances, which were added fresh daily to the medium, the following tests were carried out with the cultures. A first test was conducted for purposes of determining the relative cell concentration as a function of the number of HIV infected cells present by employing an MTT test. […] The optical density (OD) of the solution was determined at=600 nm. […]

[2] = tolerability and clinical investigation of FIV infected cats; assay type: in vivo
Source text: In the following series of experiments, two naturally FIV infected cats (M and G) were used. These particular cats were kept for more than one year under constant observation in the Clinic for Internal Medicine at the Veterinary School in Munich, Germany before the onset of melittin (Seq. ID NO:1) treatment. In each cat, FIV infection had been confirmed by detecting an antibody ELISA. In this regard, a test marketed under the tradename PetChek® and which is available from the same company in Portland, Maine was employed. As best seen in FIG. 53. The antibody titer against FIV in both cats was approximately 1:50. As a general matter, the overall physical condition of both cats was good during the observation period. […]
During the experiment it was determined that detectable blood serum levels of melittin (Seq. ID NO:1) of about 5 ng/ml could be detected following an injection of melittin equal to […] a few minutes after injection. […] In vitro data has shown that melittin, after this time interval, is found within the cells where it can be detected in tact for more than 48 hours. […] The quantitative effect of melittin on FIV replication was determined quantitatively by utilizing FIV-PCR employing nested primers from the gag region. Quantification was based upon the determination of amplified product in identical samples which have been amplified after different cycle times. […]

## Gly-Ile-Gly-Ala-Val-Leu-Lys-Val-Leu-Thr-Thr-Gly-Leu-Pro-Ala-Leu-Ile-Ser-Trp-Ile-Lys-Arg-Lys-Arg-Gln-Gln-Amide [melittin]
[1]; 2.5 μg per ml
  level of growth of the cells: appears not yet influenced
[1]; FIGS. 1-4
  selective toxicity/growth inhibition of HIV infected cells, in words: appears to inhibit the growth of HIV infected cells selectively
[1]; KE37-1/111β, seven days incubation, 10080 min
  concentration toxic to HIV infected cells: above 5 μg per ml
[2]; 50 to 500 mg/kg s.c. twice weekly, eight weeks
  tolerability / adverse reactions: appeared to tolerate the numerous injections without any clinically noticeable negative reactions; also recorded: no adverse reaction or clinical abnormalities could be observed in either animal
[2]; cat M
  pneumonitis: improved during the melittin treatment

Reference: patent US5770688A, “Method and composition for the treatment of mammalian HIV infection” (GSF-Forschungszentrum fur Umwelt und Gesundheit GmbH, priority 1989, dated 1998)
